Publication PMC10564737, “Structure-based design of a phosphotyrosine-masked covalent ligand targeting the E3 ligase SOCS2” (Nature Communications, 2023)
Values joined by “and” are separate entries in the source; they are usually repeats but may differ in a detail not shown here. Identical values can stand only once.

Molecular target: T1, SBC2 (Homo sapiens, UniProt O14508)
T1 construct: SOCS2 (amino acids 32–198); His6 (N, cleaved yes); made in house; host or cells: E. coli BL21(DE3)
Assay: Covalent fluorescence polarization (FP) probe displacement assay
Assay type: binding
Conditions: for Anisotropy based on Raw Data (485): Cycle 7 (30 min)
Source text: With the specific covalent modification of Cys111 established, we decided to fully characterize MN551 as a covalent SOCS2 inhibitor. […] (Fig. 2g, h, Supplementary Fig. 9). Due to the covalent nature of the competing inhibitor, a time-dependent reduction in the fraction of protein-bound probe is observed. […] This value illustrates reasonable specificity for a covalent inhibitor, with nonetheless scope for future optimization. In addition to characterizing the kinetic covalency parameters, we have also assessed the stability of the MN551 by monitoring its reactivity (half-life >70 min) with reduced glutathione (GSH) (Supplementary Fig. 10)[35].
To monitor the SBC2-ligand binding kinetics we designed a fluorescein-labeled small-molecule probe - compound 26. The fluorescence polarization (anisotropy) of a threefold serial dilution of 50 µM SBC2 in 10 nM of the probe in 100 mM HEPES pH 7.5, 50 mM NaCl, 0.5 mM TCEP, 2% DMSO was measured to determine the KL (Supplementary Fig. 9A) (BMG Labtech PHERAstar – firmware v1.33). Protein titration and the curves were fitted using GraphPad Prism 9, using one-site fitting models to determine the probe binding constant, KL. Samples were run in triplicate in 384 well plates, using a total volume per well of 16 μL. The bound fraction of the probe is measure using the equation:1 Fb=Af−A/Af−Ab Where,
A time-dependent reduction in probe anisotropy were measured for a 2-fold serial dilution of […] compound MN551 in 10 nM probe +300 μM SBC2. To determine the initial reversible binding affinity, the initial bound fraction of the probe at time = 0, Fbo (the y-intercept in Fb v/s Time plot, Supplementary Fig. 9B) was plotted against MN551 concentration, and the obtained IC50 is then converted to Ki (Supplementary Fig. 9C)[17]. The slope from Fb versus time graph when divided by Fbo gives rate of covalency, kobs. A plot of kobs v/s MN551 concentration using Michaelis–Menten model of GraphPad Prism 9, provides the parameters kinact (maximum potential rate of inactivation) and KI (concentration of MN551 at which kobs = kinact/2) (Supplementary Fig. 9D, E).
The observed first-order rate constant, kobs is related to KI and kinact by the equation:2 kobs=kinactI/KI+I
At [I]«[KI] the above equation is converted to3 […]
The slope from the plot of kobs against concentration of MN551 gives us the covalent efficiency parameter kinact/KI (Supp Fig. 9F)[30],[33].

[1] = MN551 48.4003 nM, Cycle 12 (55 min)
[2] = MN551 67.7604 nM, Cycle 12 (55 min)
[3] = MN551 94.8645 nM, Cycle 12 (55 min)
[4] = MN551 132.81 nM, Cycle 6 (25 min)
[5] = MN551 132.81 nM, Cycle 12 (55 min)
[6] = MN551 185.934 nM, Cycle 6 (25 min)
[7] = MN551 185.934 nM, Cycle 12 (55 min)

T1 sequence (O14508 32-198): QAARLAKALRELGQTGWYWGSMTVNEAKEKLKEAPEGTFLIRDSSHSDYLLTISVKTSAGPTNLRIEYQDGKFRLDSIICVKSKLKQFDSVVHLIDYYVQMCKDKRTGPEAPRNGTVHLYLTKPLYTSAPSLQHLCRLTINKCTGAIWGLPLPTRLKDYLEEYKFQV
T1 sequence (Q15370 1-104 partner limits assumed): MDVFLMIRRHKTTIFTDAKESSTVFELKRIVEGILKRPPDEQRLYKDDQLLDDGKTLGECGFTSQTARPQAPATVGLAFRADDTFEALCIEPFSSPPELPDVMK
T1 sequence (Q15369 17-112 partner limits assumed): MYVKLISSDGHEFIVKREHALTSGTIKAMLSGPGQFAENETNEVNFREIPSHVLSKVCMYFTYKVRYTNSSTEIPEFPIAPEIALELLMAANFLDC

O=C(CCl)Nc1cccc(CNC(=O)[C@H](Cc2ccc(OP(=O)(O)O)cc2)NC(=O)Cc2ccc(F)cc2)c1 [MN551]
Fb, fraction bound (MN551 48.4003 nM, Cycle 2 (5 min)): 1.049 and 0.9991 and 1.04 | Anisotropy [1]: 281.3 and 275.7 and 274.4 | Fb [1]: 1.033 and 1.011 and 0.9942 | Anisotropy normalised (0 nM MN551 = 1, free probe = 0) (MN551 48.4003 nM, Cycle 19 (90 min), n=1): 1.03 and 1.015 (2×) | Anisotropy normalised (0 nM MN551 = 1, free probe = 0) (MN551 48.4003 nM, Cycle 20 (95 min), n=1): 1.011 and 0.999 and 0.9749 | Anisotropy based on Raw Data (485) (MN551 48.8281 nM): 280.9 and 281.7 and 280.6 | Fb, fraction bound (MN551 48.8281 nM, Cycle 2 (5 min)): 1.013 and 1.049 and 1.036 | Anisotropy (MN551 48.8281 nM, Cycle 11 (50 min)): 280 and 280.2 and 277 | Anisotropy (MN551 48.8281 nM, Cycle 12 (55 min)): 279.7 and 280.1 and 278.6 | Anisotropy data 485,520,520 (MN551 48.8281 nM, Cycle 18 (85 min), n=1): 276.3 and 276.1 and 275.6 | Anisotropy based on Raw Data (485) (MN551 67.7604 nM): 278.6 and 278.4 and 280 | Normalised anisotropy (0 nM MN551 = 1, free probe = 0) (MN551 67.7604 nM, Cycle 13 (60 min), n=1): 1.005 and 0.9558 and 1.011 | Normalised anisotropy (0 nM MN551 = 1, free probe = 0) (MN551 67.7604 nM, Cycle 14 (65 min), n=1): 1.03 and 1.001 and 1.016 | Fb, fraction bound (MN551 67.7604 nM, Cycle 2 (5 min)): 1.032 and 1.001 and 1.045 | Fb, fraction bound (MN551 67.7604 nM, Cycle 3 (10 min)): 1.036 | Anisotropy [2]: 277.4 and 276.4 and 273 | Fb [2]: 0.9963 and 1.017 and 0.9808 | Anisotropy normalised (0 nM MN551 = 1, free probe = 0) (MN551 67.7604 nM, Cycle 19 (90 min), n=1): 1.021 and 1.031 and 0.9864 | Anisotropy normalised (0 nM MN551 = 1, free probe = 0) (MN551 67.7604 nM, Cycle 20 (95 min), n=1): 0.999 and 0.9767 and 0.9903 | Anisotropy based on Raw Data (485) (MN551 94.8645 nM): 276.5 and 276.4 and 275 | Normalised anisotropy (0 nM MN551 = 1, free probe = 0) (MN551 94.8645 nM, Cycle 13 (60 min), n=1): 0.9841 and 0.9576 and 0.9759 | Normalised anisotropy (0 nM MN551 = 1, free probe = 0) (MN551 94.8645 nM, Cycle 14 (65 min), n=1): 1.002 and 0.9934 and 0.9731 | Normalised anisotropy (0 nM MN551 = 1, free probe = 0) (MN551 94.8645 nM, Cycle 15 (70 min), n=1): 1.0078 | Fb, fraction bound (MN551 94.8645 nM, Cycle 2 (5 min)): 1.026 and 1.011 and 0.9914 | Fb, fraction bound (MN551 94.8645 nM, Cycle 3 (10 min)): 1.0139 and 1.041 and 0.9705 | Anisotropy data 485,520,520 (MN551 94.8645 nM, Cycle 6 (25 min)): 273.7 and 266.4 and 265.9 | Anisotropy [3]: 274 and 273.4 and 270.5 | Fb [3]: 0.9646 and 0.9885 and 0.9568 | Anisotropy normalised (0 nM MN551 = 1, free probe = 0) (MN551 94.8645 nM, Cycle 19 (90 min), n=1): 0.9933 and 1.003 and 0.9475 | Anisotropy normalised (0 nM MN551 = 1, free probe = 0) (MN551 94.8645 nM, Cycle 20 (95 min), n=1): 0.9691 and 0.9574 and 0.9304 | Anisotropy based on Raw Data (485) (MN551 97.6562 nM): 278.3 and 282.9 and 277.5 | Fb, fraction bound (MN551 97.6562 nM, Cycle 2 (5 min)): 1.002 and 1.056 and 1.014 | Anisotropy (MN551 97.6562 nM, Cycle 11 (50 min)): 278.8 and 281.3 and 277 | Anisotropy (MN551 97.6562 nM, Cycle 12 (55 min)): 279.1 and 279.7 and 276.5 | Anisotropy data 485,520,520 (MN551 97.6562 nM, Cycle 18 (85 min), n=1): 274.3 and 275.7 and 270.8 | Anisotropy based on Raw Data (485) (MN551 132.81 nM): 277.4 and 277.3 and 272.7 | Normalised anisotropy (0 nM MN551 = 1, free probe = 0) (MN551 132.81 nM, Cycle 13 (60 min), n=1): 0.9411 and 0.9327 and 0.945 | Normalised anisotropy (0 nM MN551 = 1, free probe = 0) (MN551 132.81 nM, Cycle 14 (65 min), n=1): 0.9679 and 0.9614 and 0.9597 | Normalised anisotropy (0 nM MN551 = 1, free probe = 0) (MN551 132.81 nM, Cycle 15 (70 min), n=1): 0.9669 and 0.9677 and 0.9327 | Fb, fraction bound (MN551 132.81 nM, Cycle 2 (5 min)): 1.001 and 1.004 and 1.003 | Fb, fraction bound (MN551 132.81 nM, Cycle 3 (10 min)): 0.9889 and 1.004 and 0.9829 | Anisotropy data 485,520,520 [4]: 272.9 and 266.7 and 268.7 | Fb [4]: 1.0105 and 1.013 and 1.036 | Anisotropy [5]: 272.8 and 270.5 and 270 | Fb [5]: 0.9534 and 0.9607 and 0.952 | Anisotropy normalised (0 nM MN551 = 1, free probe = 0) (MN551 132.81 nM, Cycle 19 (90 min), n=1): 0.9528 and 0.958 and 0.9524 | Anisotropy normalised (0 nM MN551 = 1, free probe = 0) (MN551 132.81 nM, Cycle 20 (95 min), n=1): 0.9516 and 0.9273 and 0.9285 | Anisotropy based on Raw Data (485) (MN551 185.934 nM): 278.1 and 275.4 and 274.1 | Normalised anisotropy (0 nM MN551 = 1, free probe = 0) (MN551 185.934 nM, Cycle 13 (60 min), n=1): 0.927 and 0.9051 and 0.9324 | Normalised anisotropy (0 nM MN551 = 1, free probe = 0) (MN551 185.934 nM, Cycle 14 (65 min), n=1): 0.9406 and 0.935 and 0.929 | Normalised anisotropy (0 nM MN551 = 1, free probe = 0) (MN551 185.934 nM, Cycle 15 (70 min), n=1): 0.9561 and 0.9184 and 0.9202 | Fb, fraction bound (MN551 185.934 nM, Cycle 3 (10 min)): 0.9759 and 0.9879 and 0.9619 | Anisotropy data 485,520,520 [6]: 271.2 and 265.9 and 264.5 | Fb [6]: 1.005 and 0.998 and 1.018 | Anisotropy [7]: 270.4 and 269.3 and 268.1 | Fb [7]: 0.931 and 0.9492 and 0.9338 | Anisotropy normalised (0 nM MN551 = 1, free probe = 0) (MN551 185.934 nM, Cycle 19 (90 min), n=1): 0.9172 and 0.936 and 0.9397 | Anisotropy normalised (0 nM MN551 = 1, free probe = 0) (MN551 185.934 nM, Cycle 20 (95 min), n=1): 0.9014 and 0.9041 and 0.8899 | Anisotropy based on Raw Data (485) (MN551 195.312 nM): 281 and 276.5 and 273 | Fb, fraction bound (MN551 195.312 nM, Cycle 2 (5 min)): 0.9639 and 1.006 and 1.008 | Anisotropy (MN551 195.312 nM, Cycle 12 (55 min)): 272.9 and 273.5 and 273 | Anisotropy based on Raw Data (485) (MN551 260.308 nM): 270.2 and 268.2 and 264.5 | Normalised anisotropy (0 nM MN551 = 1, free probe = 0) (MN551 260.308 nM, Cycle 13 (60 min), n=1): 0.8241 and 0.8101 and 0.8658 | Normalised anisotropy (0 nM MN551 = 1, free probe = 0) (MN551 260.308 nM, Cycle 14 (65 min), n=1): 0.8651 and 0.8427 and 0.8474 | Normalised anisotropy (0 nM MN551 = 1, free probe = 0) (MN551 260.308 nM, Cycle 15 (70 min), n=1): 0.8655 and 0.8321 and 0.8452 | Fb, fraction bound (MN551 260.308 nM, Cycle 3 (10 min)): 0.9027 and 0.9023 and 0.8716 | Anisotropy data 485,520,520 (MN551 260.308 nM, Cycle 6 (25 min)): 268.3 and 257.5 and 257.9
